The test system of one test is burn wounds. Nature of the test: Burn Injury Model (Example 3). The note with it: per wound: dexamethasone 0.4 mg, MAP 0.25 mg, montelukast 0.25 mg, once daily topically. The class given is in vivo, Sprague-Dawley rats. On the procedure:
Healthy adult male Sprague-Dawley rats weighing between 200 and 300 g were supplied by Beijing Vital River Laboratory Animal Technology Co. Ltd, Beijing, China.
Prior to any experiments being conducted, rats were housed under standardized conditions (at a constant temperature or 22 t 2° C., with alternating 12 hour periods of light and darkness) and were fed on a standard rat diet with water.
Rats were anaesthetised with 3% chloral hydrate (Sinopharm Chemical Reagent Co., Ltd., Shanghai, China) (1 mL/100 g of body weight) administered by intraperitoneal injection. The dorsal trunk was of each rat was shaved with an electric razor and surgically prepared with 70% alcohol scrubs. A constant temperature and constant pressure scald instrument (YLS-5Q, Shandong Academy of Medical Sciences, China) was employed, as this allows for a precise measurement of pressure applied to the skin surface. Thermal injury was induced by heating a stylus (with a surface area of 4 cm^2) to 80° C. and applying the stylus to the surface of the skin for a contact time of 18 seconds. 500 grams of pressure was applied during the operation. In this way, four two-degree shallow to deep burn wounds were created on each rat. Test compounds or vehicle were applied to the surface of the wound.
Rats were kept in separate cages but were allowed to move freely throughout the test period. In the first treatment, 500 μL of the relevant solutions was applied about 3 to 4 hours after the surgery (Day 0) and then once daily for the next 7 days. Gross appearances of the scald wounds were observed every day. Photographs were taken at 48 hours (Day 2), and on the 4th (Day 4) and 7th (Day 7) days with a digital camera to compare wound healing. The skin lesions were evaluated for the following criteria: blistering, swelling, redness, crust, bleeding, secretion, granulation tissue and scar tissue. The degree of healing was expressed as the wound contraction ratio (WCR): WCR=(A0−At)/A0×100% in which A0 and At refer to the initial area and the wound area at time t, respectively.
On Days 2, 4 and 7 after application of the burn, two rats were sacrificed and the burned skins excised. The freshly isolated skin was fixed in 10% neutral buffered formalin (which contained 4% of formaldehyde). This was used for histological embedding, staining and immunohistochemical studies.
Administered solutions were made up substantially as described in Example 1 above.
Burn scores are shown in Table 12 below and are illustrated in FIG. 3. Skin samples were sent to the Department of Pathology of Nanjing Hospital of Chinese Medicine, China. Samples were fixed and embedded, and histological sections were cut and stained. The stained sections were examined under a light microscope and pictures were taken. All pictures were interpreted and scored according to the following criteria: first degree—the epidermis was damaged and the substrate remains intact (score 1 point); superficial second degree—the epidermis was completely damaged and the papillary layer was damaged (1.5 points): deep second degree—the dermis was injured into the reticular layer and retain some dermis (2.5 points); and third degree—the dermis was completely damaged and the muscles and/or bones affected (3 points).

The test system of test [1] is carrageenan-induced acute inflammation in subcutaneous air pouch. Kind of test: Air Pouch Model: Combination of Montelukast (Example 5). The note with it: MAP 1.5 mg, Mon 200 μg; for Activity score / Edema Score / Fibroblast proliferation score / IFN-γ in exudate (ELISA) / IL-6 in exudate (ELISA) / IL-10 in exudate (ELISA) / Inflammation score / Leukocyte count in exudate / Lymphocyte count in exudate / Monocyte count in exudate / Neutrophil count in exudate / Sum (of histology scores) / TNF-α in exudate (ELISA): dexamethasone 200 μg; for Exudate volume / Pouch Wall Weight: doses/mouse: dexamethasone 200 μg. Format: in vivo, mice. (In general: In an ELISA, binding on a coated surface is turned into a signal by an enzyme label.)

Each structure is given as a SMILES string.

In the case of `C[C@@H]1C[C@H]2[C@@H]3CCC4=CC(=O)C=C[C@]4(C)[C@@]3(F)[C@@H](O)C[C@]2(C)[C@@]1(O)C(=O)CO` [Dexamethasone, dexamethasone], the Burn score in the test with burn wounds (Day 2) is given as 2.25. The compound also returned a Burn score in the test on burn wounds (Day 4) of 2.64. In the test with burn wounds (Day 7), this compound showed a Burn score of 2.50. Further, in test [1], the Activity score was 0.83, the “Edema Score” value worked out at 1.67, the Fibroblast proliferation score is given as 0.00 and the “IFN-γ in exudate (ELISA)” value is given as 2879 ± 1267. Also, in test [1], the “IL-6 in exudate (ELISA)” value turned out to be 3649 ± 1764, the “IL-10 in exudate (ELISA)” value was found to be 52.33 ± 11.60, the Inflammation score was 1.50 and the “Leukocyte count in exudate” value came to 2.48e+06 mL⁻¹. In test [1], the “Lymphocyte count in exudate” value worked out at 2.08e+06 mL⁻¹, the “Monocyte count in exudate” value was 50000 mL⁻¹, the “Neutrophil count in exudate” value stood at 220000 mL⁻¹ and the “Sum (of histology scores)” value is 4.00. Besides, in test [1], the “TNF-α in exudate (ELISA)” value is reported as 71.31 ± 111.19, the “Exudate volume” value is recorded as 3.60 ± 0.14 mL and the “Pouch Wall Weight” value is recorded as 0.72 ± 0.09 g.

In the case of `CC(C)(O)c1ccccc1CC[C@@H](SCC1(CC(=O)O)CC1)c1cccc(/C=C/c2ccc3ccc(Cl)cc3n2)c1` [Mon, Montelukast sodium], the Burn score in the test with burn wounds (Day 2) is listed as 1.50. Further, the Burn score in the test with burn wounds (Day 4) worked out at 2.38. Moreover, the Burn score with burn wounds (Day 7) is 2.00. For the same compound, in test [1], the Activity score turned out to be 1.00, the Fibroblast proliferation score stood at 0.83, the Inflammation score was determined as 2.17 and the “Leukocyte count in exudate” value was found to be 3.82e+06 mL⁻¹. Also, in test [1], the “Lymphocyte count in exudate” value came out at 3.22e+06 mL⁻¹, the “Monocyte count in exudate” value turned out to be 170000 mL⁻¹, the “Neutrophil count in exudate” value is 290000 mL⁻¹ and the “Sum (of histology scores)” value turned out to be 5.50. In addition, in test [1], the “Exudate volume” value was 3.68 ± 0.15 mL and the “Pouch Wall Weight” value was determined as 0.66 ± 0.13 g. In test [1] (listed as MON-O), the “Edema Score” value worked out at 1.00, the Fibroblast proliferation score is listed as 0.33, the “Leukocyte count in exudate” value turned out to be 2.38e+06 mL⁻¹ and the “Lymphocyte count in exudate” value came out at 1.98e+06 mL⁻¹. Moreover, in test [1] (listed as MON-O), the “Monocyte count in exudate” value was found to be 70000 mL⁻¹, the “Neutrophil count in exudate” value is 210000 mL⁻¹, the “Sum (of histology scores)” value came out at 4.17 and the “Exudate volume” value stood at 3.58 ± 0.15 mL. Further, in test [1] (listed as MON-O), the “Pouch Wall Weight” value came to 0.67 ± 0.10 g. In addition, in test [1] (listed as Mon (oral)), the “IFN-γ in exudate (ELISA)” value worked out at 2495 ± 711, the “IL-6 in exudate (ELISA)” value was 8453 ± 9758, the “IL-10 in exudate (ELISA)” value is listed as 52.59 ± 7.22 and the “TNF-α in exudate (ELISA)” value worked out at 39.41 ± 17.62. In addition, in test [1] (listed as Mon (topical)), the “IFN-γ in exudate (ELISA)” value worked out at 1690 ± 725, the “IL-6 in exudate (ELISA)” value amounted to 2528 ± 1538, the “IL-10 in exudate (ELISA)” value is recorded as 68.18 ± 15.81 and the “TNF-α in exudate (ELISA)” value is listed as 90.73 ± 109.02.

For the origin of these results see patent US11672792B2, “Topical formulations comprising montelukast and combinations with mussel adhesive proteins” (ENLITISA (SHANGHAI) PHARMACEUTICAL CO., LTD, priority 2017, dated 2023).
